Assay results from ChEMBL document CHEMBL1126039, “Synthesis and antiviral activity of 1-cyclobutyl-5-(2-bromovinyl)uracil nucleoside analogues and related compounds” (J Med Chem, 1992).
pIC50: −log10 of the molar value.

Tests used:
[1] = test system: WI-38; experiment: Anti viral activity against VZV(Oka strain) in WI-38 cell monolayers.; type: functional; conditions: Homo sapiens, read-out: ID50 (the source's name)
[2] = test system: WI-38; experiment: Anti viral activity against VZV(pplla strain) in WI-38 cell monolayers.; type: functional; conditions: Homo sapiens, read-out: ID50 (the source's name)
[3] = test system: WI-38; experiment: Anti viral activity against VZV(Ellen strain) in WI-38 cell monolayers.; type: functional; conditions: Homo sapiens, read-out: ID50 (the source's name)
[4] = test system: WI-38; experiment: Anti viral activity against HCMV(AD169) in WI-38 cell monolayers; type: functional; conditions: Homo sapiens, read-out: ID50 (the source's name)
[5] = Therapeutic index of compound maesured as ratio of ID50 for WI-38 cell growth inhibition / ID50 anti-VZV (strain Ellen); type: cell-based; conditions: human, WI-38 cells; read-out: Therapeutic index
[6] = test system: WI-38; experiment: Growth inhibitory activity against WI-38 cells; type: functional; conditions: Homo sapiens, read-out: ID50 (the source's name)
[7] = molecular target: T1, Thymidine kinase, cytosolic (Homo sapiens) (UniProt P04183); conditions: Human alphaherpesvirus 3
T1 sequence (whole entry): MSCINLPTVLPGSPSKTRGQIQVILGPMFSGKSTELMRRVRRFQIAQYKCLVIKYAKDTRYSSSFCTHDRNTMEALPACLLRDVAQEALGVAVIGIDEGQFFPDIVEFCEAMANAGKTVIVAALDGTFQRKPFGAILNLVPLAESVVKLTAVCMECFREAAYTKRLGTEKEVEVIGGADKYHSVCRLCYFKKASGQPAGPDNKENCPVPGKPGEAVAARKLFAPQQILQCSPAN

[8] = test system: WI-38; experiment: Anti viral activity against HSV-2(186) in WI-38 cell monolayers; type: functional; conditions: Homo sapiens, read-out: ID50 (the source's name)
[9] = test system: WI-38; experiment: Anti viral activity against VZV (Kanno-Kohmura(TK-) strain) in WI-38 cell monolayers.; type: functional; conditions: Homo sapiens, read-out: ID50 (the source's name)
[10] = test system: WI-38; experiment: Anti viral activity against HSV-1(Schooler) in WI-38 cell monolayers; type: functional; conditions: Homo sapiens, read-out: ID50 (the source's name)
[11] = molecular target: T1, Thymidine kinase, cytosolic (Homo sapiens); conditions: Human alphaherpesvirus 3; remark: listed apart in the source
[12] = test system: WI-38; experiment: Anti viral activity against VZV(Ito strain) in WI-38 cell monolayers.; type: functional; conditions: Homo sapiens, read-out: ID50 (the source's name)
[13] = test system: WI-38; experiment: Anti viral activity against VZV(9021 strain) in WI-38 cell monolayers.; type: functional; conditions: Homo sapiens, read-out: ID50 (the source's name)
[14] = test system: WI-38; experiment: Anti viral activity against HSV-2 in WI-38 cell monolayers.; type: functional; conditions: Homo sapiens, read-out: ID50 (the source's name)
[15] = test system: WI-38; experiment: Anti viral activity against HSV-1 in WI-38 cell monolayers.; type: functional; conditions: Homo sapiens, read-out: ID50 (the source's name)
[16] = test system: WI-38; experiment: Anti viral activity against VZV in WI-38 cell monolayers.; type: functional; conditions: Homo sapiens, read-out: ID50 (the source's name)
[17] = test system: WI-38; experiment: Anti viral activity against HCMV in WI-38 cell monolayers.; type: functional; conditions: Homo sapiens, read-out: ID50 (the source's name)
[18] = test system: WI-38; experiment: Anti viral activity against VZV(40a2 (TK-) strain) in WI-38 cell monolayers.; type: functional; conditions: Homo sapiens, read-out: ID50 (the source's name)

Compound	pIC50 [1]	pIC50 [2]	pIC50 [3]	pIC50 [4]	selectivity ratio [5]	pIC50 [6]	Kinase activity (pM min-1*ml-1) [7]	pIC50 [8]	pIC50 [9]	pIC50 [10]	Kinase activity (pM min-1*ml-1) [11]	pIC50 [12]	pIC50 [13]	pIC50 [14]	pIC50 [15]	pIC50 [16]	pIC50 [17]	pIC50 [18]
O=c1[nH]c(=O)n([C@@H]2O[C@H](CO)[C@@H](O)[C@@H]2O)cc1/C=C/Br [SORIVUDINE]	8.52	8.52	8.52	< 3.54	> 7.5	< 4.12	95	3.92	< 4.14	6.85	140	8.15	8.52	–	–	–	–	–
O=c1[nH]c(=O)n([C@@H]2C[C@H](CO)C2CO)cc1/C=C/Cl (stereo partly specified)	–	–	6.40	3.46	> 2	< 3.40	–	< 3.55	< 3.66	5.46	333	7.30	5.96	–	–	–	–	–
O=c1[nH]c(=O)n([C@@H]2C[C@H](CO)C2O)cc1I (stereo partly specified)	–	–	–	–	–	–	–	–	–	–	–	–	–	< 3.52	< 3.52	< 3.52	< 3.52	–
Cc1cn([C@H]2C[C@H](O)[C@@H](CO)O2)c(=O)[nH]c1=O	–	–	–	–	–	–	174	–	–	–	585	–	–	–	–	–	–	–
O=c1[nH]c(=O)n([C@@H]2C[C@H](CO)C2CO)cc1/C=C/Br (stereo partly specified)	–	6.70	6.70	< 3.52	> 1.3	< 3.12	–	< 3.52	3.82	5.52	63	7.82	6.82	–	–	–	–	–
Nc1nc2c(ncn2COCCO)c(=O)[nH]1 [ACYCLOVIR]	–	–	–	4.40	–	< 3.12	–	6.10	–	6.70	13	–	–	–	–	–	–	–
O=c1[nH]c(=O)n([C@@H]2C[C@H](CO)C2CO)cc1I (stereo partly specified)	–	–	4.55	–	–	–	–	–	–	–	–	–	–	–	4.85	–	–	–
O=c1[nH]c(=O)n([C@@H]2C[C@H](CO)C2CO)cc1/C=C/I (stereo partly specified)	–	6.59	7.30	3.59	> 2.7	< 3.10	–	< 3.59	< 3.59	4.89	736	7.00	6.89	–	–	–	–	–
O=c1[nH]c(=O)n(C2CC(CO)C2CO)cc1/C=C/Br (racemic)	6.22	6.70	6.82	< 3.52	> 2.5	< 3.12	–	< 3.52	< 3.52	< 5.22	1280	6.82	6.22	–	–	–	–	< 3.52
